Results taken from USRE39681E1, “1-(4-sulfamyaryl)-3-substituted-5-aryl-2-pyrazolines and inhibitors of cyclooxygenase-2” (Temple University - of the Commonwealth System of Higher …, priority 1999, dated 2007).

Key:
DLD-1 cells = experiment: Soft agar assay, colony growth; assay type: cell-based, human; details: highest concentration tested (range 10 μM to 75 μM), one dose, stained 20 days later, FIG. 1
Description: The Example 1 and 24 compounds were compared to the COX-2 inhibitor celecoxib in inhibiting the growth of DLD-1 cells in soft agar. DLD-1 cells are human colorectal carcinoma cells that overexpress COX-2. DLD-1 cells grow in soft agar and form tumors in nude mice. The soft agar assay was performed as follows. A layer of bottom agar ([…]) was placed onto 60 mm^2 tissue culture dishes. The tumor cells were trypsinized from normal growth flasks while in exponential growth. The cells were counted by using a hemacytometer and 1.0×10^5 cells were placed into the top agar mixture containing growth medium, 4% noble agar and various concentrations of drugs. The concentration range was normally between 10 μM to 75 μM. The cells were not refed during the assay system; therefore, the cells were treated with one dose of the agents. The plates were stained 20 days later with a 0.05% (w/v) nitroblue tetrazolium solution (which stains only viable cells) for 48 hours. The results are shown in FIG. 1, the y-axis being the percent of cell colonies remaining in comparison to untreated control cells.

[1] = Cyclooxygenase enzyme assay (TLC method), COX-1; assay type: biochemical, ovine; details: second column headed COX-2; preincubation 90-120 min, [1-14C] arachidonic acid 50 μM; read-out: Inhibition of Cyclooxygenase Activity IC50 COX-2
Description: Cyclooxygenase activity of ovine COX-1 (Oxford Biomedical Research Inc.) and human recombinant COX-2 (Oxford Biomedical Research Inc.) was assayed by a thin layer chromatography (TLC) method as follows. All inhibitors were dissolved in dimethyl sulfoxide to a stock solution of 5mM. Human recombinant COX-2 (3 units) or ovine COX-1 (15 units) was incubated with inhibitors at several concentrations in a solution containing 100 mM Tris-HCl, pH7.8, 500 μM phenol and hematin for 90 to 120 minutes at room temperature (24° C.). In controls, equal volumes of DMSO without drug were added to the incubation mixture. After incubation for 90-120 minutes, [1-^14C] arachidonic acid (50 μM, 51 mCi/mmol) (DuPont NEN) was added and incubated at 37° C. for 2 minutes. The reaction was terminated by extraction with 1 ml of ethyl acetate. The ethyl acetate layer was transferred into a fresh tube and evaporated to dryness in a Speedvac vacuum dryer. The contents of the tubes were reconstituted in […] of ethyl acetate and spotted on a TLC plate (J. T. Baker, Philipsburg, N.J.) and developed in a mobile phase containing chloroform/methanol (95:5) at 4° C. Radiolabeled prostanoid compounds (the products of COX enzymatic reaction with radiolabeled arachidonic acid substrate) were quantitated with a radioactivity scanner (Fuji, Phosphorimager). […]

SMILES	inhibition of DLD-1 cell colony growth in soft agar (DLD-1 cells)	IC50 [1]
NS(=O)(=O)c1ccc(N2N=C(C(F)(F)F)CC2c2c[nH]c3ccccc23)cc1 (stereo not shown) [Example 24, 1-(4-Sulfamylphenyl)-3-trifluoromethyl-5-(3-indolyl)-2-pyrazoline]	100%	< 100 µM
NS(=O)(=O)c1ccc(N2N=C(C(F)(F)F)CC2c2ccccc2)cc1 (stereo not shown) [Example 1, 1-(4-Sulfamylphenyl)-3-trifluoromethyl-5-phenyl-2-pyrazoline]	100%	< 100 µM
